Data as given in patent US10168317B2, “Microfluidic device, system, and method for tracking single cells and single cell lineages” (CORNELL UNIVERSITY, priority 2012, dated 2019).
“And” between values parts separate entries of the source, which are not always exact repeats. Equal values may be shown once. “Also recorded” adds a separate entry of the source.

Assays:
cells = details: straight confinement microchannels; cited from earlier work
cell invasion = details: together with protease inhibitors; cited from earlier work
MDA-MB-231 cells [1] = assay: Single-cell lineage drug response in parallel microfluidic channels; type: cell-based, human; details: 1 nM Paclitaxel, constant treatment, day 2 and day 6, about one week
Description: FIG. 26 illustrates breast cancer cells treated with 1 nM Paclitaxel at day 2 (top) and day 6 (bottom) from initial treatment, as observed in one embodiment of a microfluidic device/microfluidic system of the present invention. […] The emergence of drug resistance can therefore be identified at the single-cell and single-cell lineage level, which can provide better biological resolution and can identify the onset of resistance more quickly especially if only a rare subpopulation of the bulk cells is resistant.
To move forward, we will expand these studies to distinguish the difference in drug responsivity between individual cell lineages enabled by our cell isolation technique previously described, and we will extend the time-scale of these experiments to accommodate for the emergence of drug resistance.

MDA-MB-231 cells [2] = assay: MUSIC device: cell migration in the larger channel LC (speed, mean-squared displacement); type: cell-based, human
Description: (§1) MDA-MB-231 cells were obtained from the NCl PS-OC and the ATCC. They were cultured in Leibovitz L-15 media (Life Technologies) supplemented with 10% fetal bovine serum (Atlanta Biologicals) and 1% Penicillin-Streptavidin (Life Technologies). K20T cells were obtained from the Giannakakou lab at Weill Cornell Medical College. They are a taxol-resistant derivative of MDA-MB-231 cells (K. M. Wiesen et al., Cancer Letters, 2007, 257, 227-235). They were cultured in L-15 media supplemented with 10% fetal bovine serum, 1% Penicillin-Streptavidin, and 15 nM paclitaxel (taxol) (Cytoskeleton, Inc). All cells were incubated at 37° C. without supplemented CO2.
Cells were loaded into the inlet reservoir regions at the ends of the microchannels and allowed to spontaneously migrate into the three-dimensionally confined channels. Devices with cells were incubated as in regular cell culture as described above. Timelapse experiments were performed once the cells were in the channels. For each experiment, devices were placed on top of a heating plate maintained at 37° C. Typical durations for timelapse experiments were around 1-2 days at a temporal resolution of 3.4 minutes. Cell tracking and measurements were performed by manual tracing via ImageJ. Data processing and analysis were performed via custom programs on MATLAB. The height of the microchannels used for all experiments with quantitative analysis was 10 μm. […] Standard DAPI staining was used for fluorescence imaging in FIG. 9. […]
To develop an assay that can directionally focus the cell invasion program for high throughput quantitative analysis, we designed and fabricated a microfluidic device that induces serial dimensional modulation on the cell and nucleus scale (FIG. 3). […] Because the migration vector points in one direction (x) and the primary induced region of change is in the orthogonal direction (y), high throughput quantitative analysis can now be accomplished in 1-D, thus increasing the feasibility of experiments and enabling predetermined axes of interest. […]

MDA-MB-231 cells [3] = assay: Serial micropipette: pressure-driven transit across sequential subnucleus-scaled constrictions; type: cell-based, human; details: 10 μM taxol for 1 day
Description: MDA-MB-231 cells were obtained from the NCl Physical-Sciences and Oncology Center. They were cultured in Leibovitz L-15 media (Life Technologies) with 10% fetal bovine serum (Atlanta Biologicals) and 1% Penicillin-Streptavidin (Life Technologies) at 37° C. without CO2.
Devices were treated with 1% bovine serum albumin (BSA) (Sigma-Aldrich) in serum-free media (L-15) for several hours before experiments in order to prevent stiction. Additionally, cells used in experiments were resuspended in serum-free media. Cells were loaded into the inlet reservoir of the device and experiments were automatically conducted as described in the design and operations section of this paper. The device was placed and kept on a heating plate set at 37° C. Videos were recorded at 500 ms per frame under a microscope, which produced the data of the experiments. Experimental analysis and cell tracking were performed using ImageJ and custom MATLAB programs. For statistical analysis, one-way ANOVA was used to determine statistical significance. Error bars on data represent standard error of the mean (s.e.m.). For taxol experiments, cells were incubated in 10 μM taxol (Cytoskeleton, Inc.) for 1 day prior to experiments. For fluorescence experiments, NucBlue (a live nucleus counterstain that is formulated from Hoechst 33342) (Life Technologies) was used and cells were incubated in the dye in complete growth media for 15 minutes.
The device consists of parallel microchannels. Each channel contains a series of microconstrictions to serve as a serial micropipette capable of deforming objects multiple times via pressure driven flow. The larger region of the channel has a width of 15 μm, which is on the order of the size of a cell. The smaller constriction region is 3.3 μm, which is smaller than the cell nucleus, thus ensuring that the cell undergoes a substantial deformation that samples a key organelle in the cell that often limits cell squeezing in physiological landscapes due to its size and stiffness. […]

MDA-MB-231 cells [4] = assay: MUSIC device: cell invasion across subnucleus barriers (SNI), timelapse; type: cell-based, human; details: for ability to invade across subnucleus barriers / tight spaces: taxol (Paclitaxel)-treated MDA-MB-231 cells
Description: as §1
Cells were loaded into the inlet reservoir regions at the ends of the microchannels and allowed to spontaneously migrate into the three-dimensionally confined channels. Devices with cells were incubated as in regular cell culture as described above. Timelapse experiments were performed once the cells were in the channels. For each experiment, devices were placed on top of a heating plate maintained at 37° C. Typical durations for timelapse experiments were around 1-2 days at a temporal resolution of 3.4 minutes. Cell tracking and measurements were performed by manual tracing via ImageJ. Data processing and analysis were performed via custom programs on MATLAB. The height of the microchannels used for all experiments with quantitative analysis was 10 μm. […] For statistical analysis, the Chi-squared test was used for probability measurements, and ANOVA statistics were used for all other measurements, unless otherwise specified. Error bars are standard error of the mean (s.e.m.). Standard DAPI staining was used for fluorescence imaging in FIG. 9. For cell viability in these devices, we found in a typical timelapse experiment of ˜23 hrs that less than 10% (5 out of 54) of the cells died while occupying the experimental field of view.
To develop an assay that can directionally focus the cell invasion program for high throughput quantitative analysis, we designed and fabricated a microfluidic device that induces serial dimensional modulation on the cell and nucleus scale (FIG. 3). We refer to this herein as a MUlti-staged Serial Invasion Channels (MUSIC) device. […] Then we incorporate a spatially tapering interface that connects the confinement channel to another even smaller channel (referred to as the subnucleus barrier (SNB)) with width smaller than the cell nucleus, which is one of the largest and stiffest organelles in the cell (P. Friedl et al., Current Opinion in Cell Biology, 2011, 23, 55-64). […] This device design in essence directs and reduces the 3-D invasion program into a 2-component process—1) the cell migrates in the x-direction while 2) necessarily altering its y-dimensions. Because the migration vector points in one direction (x) and the primary induced region of change is in the orthogonal direction (y), high throughput quantitative analysis can now be accomplished in 1-D, thus increasing the feasibility of experiments and enabling predetermined axes of interest. Furthermore, repeating patterns of the subnucleus barrier are placed along the length of the microchannel, enabling serial effects and multiple sampling of individual cells, therefore providing a way to elucidate the plasticity of mechanisms of invasion for each cell. In our experiments, we consider both 1) cell invasion in only the larger confinement channel region (referred to as LCI) and 2) invasion from the larger channel across the subnucleus barrier (referred to as SNI). Our device design incorporates two different lengths for the SNB—10 μm (SNB10) and 60 μm (SNB60), which are shorter and longer than a typical MDA-MB-231 cell, respectively.
To understand higher order effects of cell invasion, we first identified the nonlinearity in the cell displacement function during SNI. Then we segmented the process into 4 distinct phases and measured the time constants of each phase. […]

[5] = tested on: MDA-MB-231 metastatic breast cancer cells; assay: Cell morphology after taxol treatment in the microfluidic device; type: cell-based, human
Excerpt: FIGS. 29A-29B illustrate cancer cells treated with the chemotherapeutic taxol in embodiments of a microfluidic device and system of the present invention. […] FIG. 29B: This more extended morphology from taxol-treated cells after failed mitosis resembles the morphology of K20T cells, which are the taxol-resistant variant of the MDA-MB-231 cells.
FIGS. 29A-29B show cancer cells treated with the chemotherapeutic taxol in embodiments of a microfluidic device and system of the present invention. […] They also lose the ability to divide properly, resulting in an extensive blebbing phase followed by cytoskeletal recovery. After failed mitosis and recovery, the cells take on a different, more extended morphology, typically with more edges and extensions. This new morphology resembles the taxol-resistant variant of these cells. […] For timelapse stacks, 34 minutes elapsed between each frame.

Row | SMILES | effect on migration rates in confinement (cells) | effect on cell invasion in combination with protease inhibitors (cell invasion) | viability and proliferation of single-cell lineages under drug (MDA-MB-231 cells [1]) | factor of difference in average cell speed between treated and untreated cells (MDA-MB-231 cells [2]; larger channel region LC, 16 μM taxol) | power-law exponent of mean-squared displacement vs. time (MSD ∝ t^x) (MDA-MB-231 cells [2]; taxol-treated MDA-MB-231 cells in larger channel LC, n=10 cells, non-linear least squares fit) | average speed in the larger channel LC (MDA-MB-231 cells [2]; taxol-treated MDA-MB-231 cells, 16 μM (printed 1604), 3.4 minute time interval, n=10) | transit time across the first constriction (MDA-MB-231 cells [3]; 10 μm-long constriction, about 400 pa, n=26) | transit times across subsequent constrictions, taxol treated vs untreated cells (MDA-MB-231 cells [3]; constrictions 2 to 5) | cell length in the microchannel (cell size) (MDA-MB-231 cells [3]; n=26) | total invasion time across subnucleus barrier SNB10 (MDA-MB-231 cells [4]; 16 µM) | factor of difference in total SNI time, treated vs untreated cells (MDA-MB-231 cells [4]; barrier 10 μm long, 16 μM taxol) | ability to invade across subnucleus barriers / tight spaces (MDA-MB-231 cells [4]) | ability to invade across subnucleus barriers / tight spaces (MDA-MB-231 cells [4]; listed as Paclitaxel) | total invasion time across subnucleus barrier SNB10 (MDA-MB-231 cells [4]; taxol-treated MDA-MB-231 cells, 16 μM taxol (printed 1604), 10 μm long barrier, lower-bound measurement, many cells not permeated by end of experiment) | total invasion time across subnucleus barrier SNB60 (MDA-MB-231 cells [4]; taxol-treated MDA-MB-231 cells, 16 μM taxol (printed 1604), 60 μm long barrier, lower-bound measurement) | cell morphology after failed mitosis ([5]; taxol-treated cells after failed mitosis and recovery) | cell morphology after treatment ([5]; taxol-treated cells before failed mitosis)
1 | COC(=O)Nc1nc2ccc(C(=O)c3cccs3)cc2[nH]1 [Nocodazole] | migration rates are affected |  |  |  |  |  |  |  |  |  |  |  |  |  |  |  | 
2 | C[C@@H](N)[C@H]1CC[C@H](C(=O)Nc2ccncc2)CC1 [Y27632] |  | synergistic effects in preventing cell invasion |  |  |  |  |  |  |  |  |  |  |  |  |  |  | 
3 | CC(=O)O[C@H]1C(=O)[C@@]2(C)[C@H]([C@H](OC(=O)c3ccccc3)[C@]3(O)C[C@H](OC(=O)[C@H](O)[C@@H](NC(=O)c4ccccc4)c4ccccc4)C(C)=C1C3(C)C)[C@]1(OC(C)=O)CO[C@@H]1C[C@@H]2O [taxol, paclitaxel] | migration rates are affected |  | many cells underwent apoptosis but a select lineage continues to propagate; also recorded: many other cells in other channels underwent apoptosis after failed cell division | ~2 | 1 and 1.014 | 0.53 μm/min | 550 ± 109 s | transit times collapse between the two cell groups | 31±2 μm | ≥ 22 h | > 20 | reduced ability in invading across tight spaces | can no longer invade | > 20 h | ≥ 22 h | recover a more extended morphology | less extended, more rounded morphology
